Measurements as given in patent US20090042810A1, “AMPK Deficient Animals, Screening Methods, And Related Therapeutics And Diagnostics” (GenExel-Sein, Inc., priority 2007, published 2009).
“Also recorded” adds a separate entry of the source. Each block holds one compound with its values, some of them ahead of it.

What was measured:
[1] = system: AMPK holoenzyme purified from rat liver; assay: In vitro kinase assay, AMPK holoenzyme purified from rat liver with GST-MRLC / GST-ACC2 substrates; format: biochemical; conditions: 0.3 mM AMP; for Phosphorylation of MRLC by AMPK in presence of inhibitor (32P autoradiography): 10 μM drug added to reaction mixture, GST-MRLC substrate
Description: (§1) Fly strains. AMPK^D1 and AMPKD2 lines were generated by imprecise excision (Lee, et al., FEBS Lett. 550, 5-10 (2003)) of AMPK^G505 line (GenExel Inc.). UAS constructs were microinjected into w^1118 embryos. LKB1- and MRLC-mutant lines were described previously (Jordan et al., J. Cell Biol. 139, 1805-1819 (1997); (Karess et al., Cell 65, 1177-1189 (1991); (Lee et al., Cell Death Differ. 13, 110-1122 (2006)). Other lines were obtained from the Bloomington Stock Center. Microscopic analyses of Drosophila tissues. Dark field, phase contrast, and SEM analyses were performed to visualize embryonic cuticle structure. Immunostaining with various antibodies were performed to visualize embryonic epithelial structure. Brain squash preparation was used to analyze genomic integrity. Kinase assays. Phosphotransferase activities were determined in a reaction mixture consisting of HEPES-Brij Buffer, ATP (γ-^32P), and protein substrates. Protein levels were visualized by immunoblot or Coomassie staining. Phosphorylated proteins were visualized by phospho-specific immunoblot or ^32P-autoradiography. Incorporated phosphates were quantified using P81 filter binding assay. Drosophila strains. The AMPK^G505 fly line with an EP-element inserted at the AMPK locus was obtained from the Genisys Collection of EP lines (GenExel Inc., Korea), and subjected to standard imprecise excision (Lee, et al., FEBS Lett. 550, 5-10 (2003); (Lee et al., Cell Death Differ. 13, 110-1122 (2006)). HA-tagged AMPK (AMPK^WT) and its mutant forms (AMPK^KR, AMPK^TA and AMPK^TD) were subcloned into the pUAST vector and microinjected into w^1118 embryos. LKB1^X5, UAS-LKB1, spaghetti-squash^1 (sqh^1), and MRLC^EE (also referred to as sqh^EE) lines were described previously (Jordan et al., J. Cell Biol. 139, 1805-1819 (1997); (Karess et al., Cell 65, 1177-1189 (1991); (Lee et al., Cell Death Differ. 13, 110-1122 (2006)). […] Deletion sites of AMPK^D1 and AMPK^D2 were determined by genomic-PCR analyses. […]

LS174T cells [2] = assay: Polarization of LS174T cells (actin, polarity markers, brush border); format: cell-based, human
human MLCK = assay: In vitro kinase assay, active MLCK with MRLC substrate; format: biochemical; conditions: 10 μM drug added to reaction solution
Description: as §1, with “strains.” for “strains. The AMPK^G505 fly line with an EP-element inserted at the AMPK locus was obtained from the Genisys Collection of EP lines (GenExel Inc., Korea), and subjected to standard imprecise excision (Lee, et al., FEBS Lett. 550, 5-10 (2003); (Lee et al., Cell Death Differ. 13, 110-1122 (2006)). HA-tagged AMPK (AMPK^WT) and its mutant forms (AMPK^KR, AMPK^TA and AMPK^TD) were subcloned into the pUAST vector and microinjected into w^1118 embryos. LKB1^X5, UAS-LKB1, spaghetti-squash^1 (sqh^1), and MRLC^EE (also referred to as sqh^EE) lines were described previously (Jordan et al., J. Cell Biol. 139, 1805-1819 (1997); (Karess et al., Cell 65, 1177-1189 (1991); (Lee et al., Cell Death Differ. 13, 110-1122 (2006)).”

human AMPK (hAMPK) = assay: In vitro kinase assay, immunoprecipitated human AMPK with MRLC substrate; format: biochemical; conditions: 10 μM drug added to reaction solution
Description: as §1, with “strains.” for “strains. The AMPK^G505 fly line with an EP-element inserted at the AMPK locus was obtained from the Genisys Collection of EP lines (GenExel Inc., Korea), and subjected to standard imprecise excision (Lee, et al., FEBS Lett. 550, 5-10 (2003); (Lee et al., Cell Death Differ. 13, 110-1122 (2006)). HA-tagged AMPK (AMPK^WT) and its mutant forms (AMPK^KR, AMPK^TA and AMPK^TD) were subcloned into the pUAST vector and microinjected into w^1118 embryos. LKB1^X5, UAS-LKB1, spaghetti-squash^1 (sqh^1), and MRLC^EE (also referred to as sqh^EE) lines were described previously (Jordan et al., J. Cell Biol. 139, 1805-1819 (1997); (Karess et al., Cell 65, 1177-1189 (1991); (Lee et al., Cell Death Differ. 13, 110-1122 (2006)).”

LS174T cells [3] = assay: AMPK and MRLC phosphorylation in LS174T cells (immunoblot / immunostaining); format: cell-based, human
Drosophila AMPK (dAMPK) = assay: In vitro kinase assay, immunoprecipitated Drosophila AMPK with MRLC substrate; format: biochemical; conditions: 10 μM drug added to reaction solution
Description: as §1, with “strains.” for “strains. The AMPK^G505 fly line with an EP-element inserted at the AMPK locus was obtained from the Genisys Collection of EP lines (GenExel Inc., Korea), and subjected to standard imprecise excision (Lee, et al., FEBS Lett. 550, 5-10 (2003); (Lee et al., Cell Death Differ. 13, 110-1122 (2006)). HA-tagged AMPK (AMPK^WT) and its mutant forms (AMPK^KR, AMPK^TA and AMPK^TD) were subcloned into the pUAST vector and microinjected into w^1118 embryos. LKB1^X5, UAS-LKB1, spaghetti-squash^1 (sqh^1), and MRLC^EE (also referred to as sqh^EE) lines were described previously (Jordan et al., J. Cell Biol. 139, 1805-1819 (1997); (Karess et al., Cell 65, 1177-1189 (1991); (Lee et al., Cell Death Differ. 13, 110-1122 (2006)).”

Drosophila S2 cells = assay: Energy deprivation-induced MRLC phosphorylation in Drosophila S2 cells (immunoblot); format: cell-based; conditions: 50 mM 2DG for 4 hr

- Phosphorylation of MRLC by AMPK in presence of inhibitor (32P autoradiography) [1]: inhibited the phosphorylation
- MLCK phosphorylation of MRLC in presence of drug (human MLCK): not
- Human AMPK phosphorylation of MRLC in presence of drug (human AMPK (hAMPK)): specifically inhibited
- Drosophila AMPK phosphorylation of MRLC in presence of drug (Drosophila AMPK (dAMPK)): specifically inhibited
Compound: c1cc(-c2cnn3cc(-c4ccc(OCCN5CCCCC5)cc4)cnc23)ccn1 [Compound C]
- 2DG-induced actin polarization, effect of inhibitor or siRNA (LS174T cells [2]; 2DG 2 hr, Compound C 10 μM 30 min before 2DG, or siRNA transfection, listed as CC): inhibited; also recorded: suppressed
- 2DG-induced MRLC phosphorylation, effect of inhibitor (LS174T cells [3]; 10 μM Compound C 30 min before 50 mM 2DG): suppressed

Compound: O=CC[C@@H](O)[C@H](O)[C@H](O)CO [2DG, 2-deoxyglucose]
- Distribution of villin, CD66/CEA and CD71/transferrin markers (LS174T cells [2]; 50 mM 2DG, 2 hr): became dramatically polarized
- Cell shape / actin cytoskeleton polarization and brush border-like structure (LS174T cells [2]; 50 mM 2DG, 2 hr, serum-free media): dramatic change in cell shape to have polarized actin cytoskeleton with a brush border-like structure
- MRLC phosphorylation (pMRLC) in S2 cells (Drosophila S2 cells): enhanced MRLC phosphorylation
- Activation of AMPK (pAMPK) (LS174T cells [3]; 50 mM 2DG, indicated time): activation of AMPK
- MRLC phosphorylation (pMRLC) in LS174T cells (LS174T cells [3]; 2DG treatment): 2DG-induced phosphorylation of MRLC

- Phosphorylation of MRLC by AMPK in presence of inhibitor (32P autoradiography) [1]: did not
- MLCK phosphorylation of MRLC in presence of drug (human MLCK): specifically inhibited
- Drosophila AMPK phosphorylation of MRLC in presence of drug (Drosophila AMPK (dAMPK)): not
Compound: O=S(=O)(c1cccc2c(I)cccc12)N1CCCNCC1 [ML-7]

- Phosphorylation of full-length MRLC by AMPK on addition of AMP ([1]; human GST-MRLC substrate): further enhanced
Compound: Nc1ncnc2c1ncn2[C@@H]1O[C@H](COP(=O)(O)O)[C@@H](O)[C@H]1O [AMP]
